In paper PMC12486440, “Design, synthesis, and in silico studies of new benzofuran–pyrazole hybrids as multi-kinase inhibitors with potential antiproliferative activity” (RSC Advances, 2025):

Columns and labels:
EGFR (WT) = target: T1, EGFR (WT) (Homo sapiens, UniProt P00533); assay: EGFR WT kinase inhibitory assay (HTRF); assay type: biochemical
T1 construct: purchased Sigma

Ovarian cancer subpanel = assay: NCI 60 subpanel summary; assay type: cell-based, human
BT-549 = details: Homo sapiens, BT-549
RPMI-8226 = details: Homo sapiens, RPMI-8226
NCI/ADR-RES = details: Homo sapiens, NCI/ADR-RES
HepG-2 cancer cells = assay: Annexin V-FITC/PI apoptosis detection; assay type: cell-based, human; details: 24 h
Method: The annexin V-FITC apoptosis detection kit (BD Biosciences) was used to quantify the percentage of cells undergoing apoptosis and detect the modes of cell death, either by apoptosis or necrosis, in the presence or absence of the active compound 3d. The experiment was carried out according to the manufacturer's protocol. More details are presented in the SI.
Flow cytometry assay employing annexin V-FITC and propidium iodide double labeling was used to further examine the apoptotic impact of compound 3d.[81,82] […] Additionally, 3d enhanced the late apoptotic effect from 0.17% in the control cells to 15.07% in the treated cells. Moreover, compound 3d promoted necrosis by 4.32% in the 3d-treated cells in comparison with 1.4% in the untreated ones (Table 5 and Fig. 4). These findings support the cytotoxic action of compound 3d on HepG-2 cells. In addition, it implies that its cytotoxic impact is not only due to it initiating programmed cell death pathways in an orderly manner but also its ability to effectively complete the apoptotic process, which results in the fragmentation and removal of cancer cells. […]
5.2.4. Annexin-V FTIC apoptotic study
Estimation of fractional DNA content (aka sub-G1 assay) is a widely used assay to determine apoptosis. Cleavage of genomic DNA into smaller fragments (180–200 bp lengths) is a hallmark for apoptosis in numerous cells. PI stained cells will stain less intensely and show a peak below the G1 peak (Sub-G1). In this work, flow cytometer with Annexin V-fluorescein isothiocyanate/propidium iodide FITC/PI double staining apoptosis detection kit (K101, Biovision) was used to study apoptosis of MCF-7 cells treated with compound 3d. Cells were incubated, collected by centrifugation, re-suspended in 500 μL of 1X binding buffer. Annexin V-FITC (5 μL) and PI (5 μL) was added and incubation was continued for additional 5 min in the dark at room temperature. Annexin V-FITC binding was analyzed by flow cytometry using FITC signal detector (FL1) and PI staining by FL2 phycoerythrin emission signal detector [75].

VEGFR-2 = target: T2, VEGFR-2 (Homo sapiens, UniProt P35968); assay: VEGFR-2 kinase inhibitory assay (Kinase-Glo MAX); assay type: biochemical
T2 construct: purchased

Prostate cancer subpanel = assay: NCI 60 subpanel summary; assay type: cell-based, human
CCRF-CEM = details: Homo sapiens, CCRF-CEM
SK-OV-3 = details: single dose 10 μM; ovarian carcinoma
[1] = single dose 10 μM, ovarian carcinoma
[2] = Homo sapiens, subpanel mean graph midpoint, read-out: MG-MID (GI50)
[3] = full panel MG-MID / subpanel MG-MID

T1 sequence (P00533 25-1210): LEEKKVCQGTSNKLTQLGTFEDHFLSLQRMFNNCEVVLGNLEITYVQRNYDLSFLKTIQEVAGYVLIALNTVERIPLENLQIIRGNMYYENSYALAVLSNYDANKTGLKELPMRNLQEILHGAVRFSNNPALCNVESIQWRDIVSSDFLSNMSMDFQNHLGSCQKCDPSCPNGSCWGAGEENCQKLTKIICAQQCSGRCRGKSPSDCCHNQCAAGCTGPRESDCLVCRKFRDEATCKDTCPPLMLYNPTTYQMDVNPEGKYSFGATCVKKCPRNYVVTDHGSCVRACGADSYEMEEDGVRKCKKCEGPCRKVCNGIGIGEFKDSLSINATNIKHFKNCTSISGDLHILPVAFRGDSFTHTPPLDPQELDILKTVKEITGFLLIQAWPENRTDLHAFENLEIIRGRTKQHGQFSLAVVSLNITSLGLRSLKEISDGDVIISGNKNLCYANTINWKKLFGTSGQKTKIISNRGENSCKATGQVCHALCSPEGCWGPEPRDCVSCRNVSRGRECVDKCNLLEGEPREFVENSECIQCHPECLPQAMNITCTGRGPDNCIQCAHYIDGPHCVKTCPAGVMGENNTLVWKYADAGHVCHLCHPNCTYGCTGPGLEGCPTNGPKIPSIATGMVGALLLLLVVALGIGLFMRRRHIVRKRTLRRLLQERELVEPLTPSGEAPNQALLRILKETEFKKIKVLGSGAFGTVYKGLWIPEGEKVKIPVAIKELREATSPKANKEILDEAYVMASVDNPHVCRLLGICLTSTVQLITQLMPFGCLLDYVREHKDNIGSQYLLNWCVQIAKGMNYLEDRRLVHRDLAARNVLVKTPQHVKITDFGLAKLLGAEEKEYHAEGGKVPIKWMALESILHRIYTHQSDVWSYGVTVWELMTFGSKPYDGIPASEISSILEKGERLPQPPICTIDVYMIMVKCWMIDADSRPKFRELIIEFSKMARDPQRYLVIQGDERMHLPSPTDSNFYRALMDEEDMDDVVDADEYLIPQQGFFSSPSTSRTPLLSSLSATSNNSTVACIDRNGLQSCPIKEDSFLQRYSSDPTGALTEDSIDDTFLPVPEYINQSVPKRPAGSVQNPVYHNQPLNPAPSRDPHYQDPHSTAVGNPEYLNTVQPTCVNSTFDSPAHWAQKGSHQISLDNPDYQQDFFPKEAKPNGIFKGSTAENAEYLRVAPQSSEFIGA
T2 sequence (P35968 20-1356): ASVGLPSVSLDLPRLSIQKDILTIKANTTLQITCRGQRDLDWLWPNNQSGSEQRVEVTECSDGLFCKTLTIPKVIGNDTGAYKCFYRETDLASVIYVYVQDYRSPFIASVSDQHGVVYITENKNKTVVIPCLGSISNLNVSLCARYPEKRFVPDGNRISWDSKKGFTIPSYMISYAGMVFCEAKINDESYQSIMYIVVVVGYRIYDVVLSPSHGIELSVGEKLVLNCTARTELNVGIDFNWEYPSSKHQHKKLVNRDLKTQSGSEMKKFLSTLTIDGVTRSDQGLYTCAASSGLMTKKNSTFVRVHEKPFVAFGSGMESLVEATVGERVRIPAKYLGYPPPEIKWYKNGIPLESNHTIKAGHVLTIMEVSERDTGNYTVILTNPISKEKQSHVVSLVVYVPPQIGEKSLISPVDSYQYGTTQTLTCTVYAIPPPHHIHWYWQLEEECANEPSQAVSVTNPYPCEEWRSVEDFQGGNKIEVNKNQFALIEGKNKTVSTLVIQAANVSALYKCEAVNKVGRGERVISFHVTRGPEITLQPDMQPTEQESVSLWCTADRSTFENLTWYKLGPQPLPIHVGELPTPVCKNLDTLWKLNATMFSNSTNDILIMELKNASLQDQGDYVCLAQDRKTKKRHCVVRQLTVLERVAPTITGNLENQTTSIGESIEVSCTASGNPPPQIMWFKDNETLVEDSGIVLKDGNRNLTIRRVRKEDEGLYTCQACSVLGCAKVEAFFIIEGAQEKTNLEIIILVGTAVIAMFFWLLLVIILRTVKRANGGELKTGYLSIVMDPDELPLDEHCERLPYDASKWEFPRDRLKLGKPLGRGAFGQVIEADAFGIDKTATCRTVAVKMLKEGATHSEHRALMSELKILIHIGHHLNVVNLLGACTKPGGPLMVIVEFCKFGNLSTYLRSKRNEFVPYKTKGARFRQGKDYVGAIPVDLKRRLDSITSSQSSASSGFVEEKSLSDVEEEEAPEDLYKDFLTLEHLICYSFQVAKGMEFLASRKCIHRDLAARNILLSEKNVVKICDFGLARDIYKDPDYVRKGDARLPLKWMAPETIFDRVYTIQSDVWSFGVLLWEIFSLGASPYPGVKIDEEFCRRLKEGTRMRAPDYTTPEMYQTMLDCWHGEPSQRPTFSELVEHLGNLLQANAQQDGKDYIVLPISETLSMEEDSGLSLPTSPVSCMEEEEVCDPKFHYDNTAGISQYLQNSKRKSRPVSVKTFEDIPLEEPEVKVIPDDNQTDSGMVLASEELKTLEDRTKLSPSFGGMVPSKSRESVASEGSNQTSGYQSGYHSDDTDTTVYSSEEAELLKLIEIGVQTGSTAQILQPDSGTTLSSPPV

Structure (SMILES): c1ccc(-n2cc(C3CC(c4nc5ccccc5[nH]4)=NN3)c(-c3cc4ccccc4o3)n2)cc1 (centres unmarked) [3d, 3-(Benzofuran-2-yl)-4-(3-(1H-benzo[d]imidazol-2-yl)-4,5-dihydro-1H-pyrazol-5-yl)-1-phenyl-1H-pyrazole]
- GI50 (T-47D; Homo sapiens, T47D): 3.12 µM
- GI% (T-47D; single dose 10 μM, breast carcinoma): 88.48%
- IC50 (EGFR (WT)): 0.398 µM
- times more effective at suppressing EGFR (WT) than erlotinib (EGFR (WT); ratio of IC50 values): 1.2
- GI50 (OVCAR-8; Homo sapiens, OVCAR-8): 5.88 µM
- GI% (OVCAR-8; [1]): 86.94%
- GI50 (NCI-H460; Homo sapiens, NCI-H460): 3.64 µM
- GI% (NCI-H460; single dose 10 μM, non-small lung carcinoma): 97.07%
- GI50 (MALME-3M; Homo sapiens, Malme-3M): 6.19 µM
- GI% (MALME-3M; single dose 10 μM, melanoma): 81.85%
- GI50 (SR; Homo sapiens, SR): 3.15 µM
- GI% (SR; single dose 10 μM, leukemia): 91.17%
- GI50 (OVCAR-5; Homo sapiens, OVCAR-5): 5.52 µM
- GI% (OVCAR-5; [1]): 66.23%
- GI50 (Ovarian cancer subpanel; [2]): 4.32 µM
- Selectivity index (Ovarian cancer subpanel; [3]): 0.97
- GI50 (RXF 393; Homo sapiens, RXF 393): 6.25 µM
- GI% (RXF 393; single dose 10 μM, renal carcinoma): 63.52%
- GI50 (BT-549): 3.85 µM
- GI50 (RPMI-8226): 3.04 µM
- GI50 (NCI/ADR-RES): 3.16 µM
- Late apoptosis (HepG-2 cancer cells; control 0.17): 15.07%
- Early apoptosis (HepG-2 cancer cells; control 0.52): 24.66%
- Necrosis (HepG-2 cancer cells; control 1.4): 4.32%
- Apoptosis, total (HepG-2 cancer cells; control 2.09): 44.05%
- IC50 (VEGFR-2): 0.619 µM
- times more effective at suppressing VEGFR-2 than sorafenib (VEGFR-2; ratio of IC50 values): 4.1
- GI50 (Prostate cancer subpanel; [2]): 4.31 µM
- Selectivity index (Prostate cancer subpanel; [3]): 0.97
- GI50 (K-562; Homo sapiens, K562): 3.37 µM
- GI% (K-562; single dose 10 μM, leukemia): 92.52%
- GI50 (SF-295; Homo sapiens, SF-295): 2.59 µM
- GI% (SF-295; single dose 10 μM, CNS cancer): 84.73%
- GI50 (CCRF-CEM): 3.11 µM
- GI% (SK-OV-3): 62.21%
